# Reference: PMC11137182, “Selective and brain-penetrant ACSS2 inhibitors target breast cancer brain metastatic cells” (Frontiers in Pharmacology, 2024)
# Target: T1, hACSS1 (Homo sapiens, UniProt Q9NUB1)
# T1 construct: purchased MyBioSource (www.mybiosource.com)
# T1 sequence (Q9NUB1 38-689): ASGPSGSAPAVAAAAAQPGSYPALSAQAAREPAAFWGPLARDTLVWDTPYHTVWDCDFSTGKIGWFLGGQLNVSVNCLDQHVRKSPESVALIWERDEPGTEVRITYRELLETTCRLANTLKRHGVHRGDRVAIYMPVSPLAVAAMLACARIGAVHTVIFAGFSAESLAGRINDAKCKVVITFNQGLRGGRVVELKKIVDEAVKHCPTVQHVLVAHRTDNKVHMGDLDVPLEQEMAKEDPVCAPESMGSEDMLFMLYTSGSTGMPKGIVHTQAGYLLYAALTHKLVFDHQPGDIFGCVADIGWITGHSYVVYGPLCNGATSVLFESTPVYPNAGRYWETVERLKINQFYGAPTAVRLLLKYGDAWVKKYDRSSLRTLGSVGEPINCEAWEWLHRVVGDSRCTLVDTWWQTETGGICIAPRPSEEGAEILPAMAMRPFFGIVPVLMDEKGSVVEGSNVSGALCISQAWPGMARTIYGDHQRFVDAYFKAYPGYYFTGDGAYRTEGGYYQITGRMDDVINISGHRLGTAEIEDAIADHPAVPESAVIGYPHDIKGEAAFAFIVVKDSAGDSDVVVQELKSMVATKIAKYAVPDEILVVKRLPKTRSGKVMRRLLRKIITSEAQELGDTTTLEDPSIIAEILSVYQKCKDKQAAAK
# Test: SPR binding to immobilized hACSS1
# Settings: single concentration 25μM injection
# Procedure: All binding assays were performed on a ProteOn XPR36 SPR Protein Interaction Array System (Bio-Rad Laboratories, Hercules, CA, United States). The instrument temperature was set at 25°C for all kinetic analyses. ProteOn GLH sensor chips were preconditioned with two short pulses each (10 s) of 50 mM NaOH, 100 mM HCl, and 0.5% sodium […]. Then, the system was equilibrated with running buffer (1x PBS pH 7.4, 3% DMSO, and 0.005% polysorbate 20). The surface of a GLH sensor chip was activated with a 1:100 dilution of a 1:1 mixture of 1-ethyl-3-(3-dimethylaminopropyl) carbodiimide hydrochloride (0.2 M) and sulfo-N-hydroxysuccinimide (0.05 M). Immediately after chip activation, the human ACSS2 or hACSS1 proteins were prepared at a concentration of 10 μg/mL in 10 mM sodium acetate, pH 5.5, and injected across ligand flow channels for 5 min at a flow rate of 30 μL/min. Then, after unreacted protein had been washed out, excess active ester groups on the sensor surface were capped by a 5 min injection of 1M ethanolamine HCl (pH 8.0) at a flow rate of 5 μL/min. […] Data were analyzed using the ProteOn Manager Software version 3.0 (Bio-Rad). […]
smiles,measurement,value
N[C@H](C(=O)N1CCCC(c2ccccc2)(c2ccccc2)C1)C1CC1 [AD-8007],binding to hACSS1 (specificity),specifically bind ACSS2 and not the mitochondrial isoform hACSS1
